From the supplement of paper PMC9013687

Assays:
Danio rerio embryo [1] = test system: Danio rerio embryo
Protocol: (§1)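 Zebrafish embryos (UFZ-OBI strain) were exposed from 2 hpf for 48 h (2 dpf) or 96 h (4 dpf) at 28 °C; spontaneous tail coiling was scored at 25 hpf. Morphological features from automated image analysis (FishInspector), heart rate and locomotor response were fitted with drc models. Quantal endpoints were dichotomised at 2.5 SD from controls and fitted with a log-logistic model; heart rate, pigmentation and STC were normalised to the replicate control mean. Betamethasone was tested as betamethasone dipropionate, diflorasone as diflorasone diacetate.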

Danio rerio embryo [2] = details: exposure time: 4 dpf
Protocol: as §1

Danio rerio embryo [3] = experiment: EC50 Curvature_Increase
Protocol: as §1

Danio rerio embryo [4] = experiment: EC50 Body length_Decrease
Protocol: as §1

Danio rerio embryo [5] = experiment: EC50 Bladder size_Decrease; details: exposure time: 4 dpf
Protocol: as §1

Danio rerio embryo [6] = experiment: EC50 Pericard size_Increase
Protocol: as §1

Danio rerio embryo [7] = experiment: EC50 Yolk sac size_Increase; details: exposure time: 4 dpf
Protocol: as §1

Danio rerio embryo [8] = experiment: EC50 Eye-jaw distance_Decrease; details: exposure time: 4 dpf
Protocol: as §1

Danio rerio embryo [9] = experiment: EC50 Otolith-eye distance_Decrease; details: exposure time: 4 dpf
Protocol: as §1

Danio rerio embryo [10] = experiment: EC10 LMR dark; higher = less potent; details: exposure time: 4 dpf
Protocol: as §1

Danio rerio embryo [11] = experiment: EC20 LMR dark; higher = less potent; details: exposure time: 4 dpf
Protocol: as §1

Danio rerio embryo [12] = experiment: EC20 Any effect; higher = less potent
Protocol: as §1

Danio rerio embryo [13] = experiment: EC10 Any effect; higher = less potent
Protocol: as §1

Danio rerio embryo [14] = experiment: EC20 Eye size_Decrease; higher = less potent; details: exposure time: 4 dpf
Protocol: as §1

Danio rerio embryo [15] = experiment: EC10 Curvature_Increase; higher = less potent
Protocol: as §1

Danio rerio embryo [16] = experiment: EC20 Curvature_Increase; higher = less potent
Protocol: as §1

Danio rerio embryo [17] = experiment: EC20 Body length_Decrease; higher = less potent
Protocol: as §1

Danio rerio embryo [18] = experiment: EC10 Body length_Decrease; higher = less potent
Protocol: as §1

Danio rerio embryo [19] = experiment: EC10 Bladder size_Decrease; higher = less potent; details: exposure time: 4 dpf
Protocol: as §1

Danio rerio embryo [20] = experiment: EC20 Bladder size_Decrease; higher = less potent; details: exposure time: 4 dpf
Protocol: as §1

Danio rerio embryo [21] = experiment: EC20 Yolk sac size_Increase; higher = less potent; details: exposure time: 4 dpf
Protocol: as §1

Danio rerio embryo [22] = experiment: EC20 Pericard size_Increase; higher = less potent
Protocol: as §1

Danio rerio embryo [23] = experiment: EC10 Yolk sac size_Increase; higher = less potent; details: exposure time: 4 dpf
Protocol: as §1

Danio rerio embryo [24] = experiment: EC10 Pericard size_Increase; higher = less potent
Protocol: as §1

Danio rerio embryo [25] = experiment: EC20 Eye-jaw distance_Decrease; higher = less potent; details: exposure time: 4 dpf
Protocol: as §1

Danio rerio embryo [26] = experiment: EC10 Eye-jaw distance_Decrease; higher = less potent; details: exposure time: 4 dpf
Protocol: as §1

Danio rerio embryo [27] = experiment: EC20 Otolith-eye distance_Decrease; higher = less potent; details: exposure time: 4 dpf
Protocol: as §1

Danio rerio embryo [28] = experiment: EC10 Otolith-eye distance_Decrease; higher = less potent; details: exposure time: 4 dpf
Protocol: as §1

Danio rerio embryo [29] = experiment: spontaneous tail coiling frequency (coils/min/embryo); higher = more spontaneous movement; details: 25 hpf
Protocol: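 Spontaneous tail coilings of zebrafish embryos exposed from 2 hpf were recorded at 24-25 hpf in 1-min videos and detected by a KNIME workflow from grey-value variance. Betamethasone was tested as the dipropionate, diflorasone as the diacetate.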

Cc1ccc(-c2cc(C(F)(F)F)nn2-c2ccc(S(N)(=O)=O)cc2)cc1 [Celecoxib]
Details | EC10 Any effect [µM] | EC10 Body length Decrease [µM] | EC10 Curvature Increase [µM] | EC10 Pericard size Increase [µM] | EC20 Any effect [µM] | EC20 Body length Decrease [µM] | EC20 Curvature Increase [µM] | EC20 Pericard size Increase [µM] | EC50 Any effect [µM] | EC50 Body length Decrease [µM] | EC50 Curvature Increase [µM] | EC50 Pericard size Increase [µM] | EC50 STC bell shape [µM] | spontaneous tail coiling frequency
Danio rerio embryo [1], exposure time: 2 dpf | – | – | – | – | – | – | – | – | 13.9 | – | – | – | – | –
Danio rerio embryo [1], exposure time: 4 dpf | – | – | – | – | – | – | – | – | 8.13 | – | – | – | – | –
Danio rerio embryo [1], exposure time: 25 h | – | – | – | – | – | – | – | – | – | – | – | – | 32.2 | –
Danio rerio embryo [3], exposure time: 2 dpf | – | – | – | – | – | – | – | – | – | – | 31.6 | – | – | –
Danio rerio embryo [3], exposure time: 4 dpf | – | – | – | – | – | – | – | – | – | – | 21.1 | – | – | –
Danio rerio embryo [4], exposure time: 2 dpf | – | – | – | – | – | – | – | – | – | 25.2 | – | – | – | –
Danio rerio embryo [4], exposure time: 4 dpf | – | – | – | – | – | – | – | – | – | 13.6 | – | – | – | –
Danio rerio embryo [6], exposure time: 2 dpf | – | – | – | – | – | – | – | – | – | – | – | 13.3 | – | –
Danio rerio embryo [6], exposure time: 4 dpf | – | – | – | – | – | – | – | – | – | – | – | 14.1 | – | –
Danio rerio embryo [12], exposure time: 2 dpf | – | – | – | – | 7.05 | – | – | – | – | – | – | – | – | –
Danio rerio embryo [12], exposure time: 4 dpf | – | – | – | – | 2.94 | – | – | – | – | – | – | – | – | –
Danio rerio embryo [13], exposure time: 2 dpf | 4.74 | – | – | – | – | – | – | – | – | – | – | – | – | –
Danio rerio embryo [13], exposure time: 4 dpf | 1.62 | – | – | – | – | – | – | – | – | – | – | – | – | –
Danio rerio embryo [15], exposure time: 2 dpf | – | – | 29.8 | – | – | – | – | – | – | – | – | – | – | –
Danio rerio embryo [15], exposure time: 4 dpf | – | – | 12.3 | – | – | – | – | – | – | – | – | – | – | –
Danio rerio embryo [16], exposure time: 2 dpf | – | – | – | – | – | – | 30.5 | – | – | – | – | – | – | –
Danio rerio embryo [16], exposure time: 4 dpf | – | – | – | – | – | – | 15 | – | – | – | – | – | – | –
Danio rerio embryo [17], exposure time: 2 dpf | – | – | – | – | – | 21.9 | – | – | – | – | – | – | – | –
Danio rerio embryo [17], exposure time: 4 dpf | – | – | – | – | – | 10.2 | – | – | – | – | – | – | – | –
Danio rerio embryo [18], exposure time: 2 dpf | – | 20.1 | – | – | – | – | – | – | – | – | – | – | – | –
Danio rerio embryo [18], exposure time: 4 dpf | – | 8.57 | – | – | – | – | – | – | – | – | – | – | – | –
Danio rerio embryo [22], exposure time: 2 dpf | – | – | – | – | – | – | – | 6.48 | – | – | – | – | – | –
Danio rerio embryo [22], exposure time: 4 dpf | – | – | – | – | – | – | – | 9.76 | – | – | – | – | – | –
Danio rerio embryo [24], exposure time: 2 dpf | – | – | – | 4.26 | – | – | – | – | – | – | – | – | – | –
Danio rerio embryo [24], exposure time: 4 dpf | – | – | – | 7.87 | – | – | – | – | – | – | – | – | – | –
Danio rerio embryo [29], 5 µM | – | – | – | – | – | – | – | – | – | – | – | – | – | 2.65
Danio rerio embryo [29], 8.3 µM | – | – | – | – | – | – | – | – | – | – | – | – | – | 2.21
Danio rerio embryo [29], 10 µM | – | – | – | – | – | – | – | – | – | – | – | – | – | 2.87
Danio rerio embryo [29], 16.5 µM | – | – | – | – | – | – | – | – | – | – | – | – | – | 2.73
Danio rerio embryo [29], 17.5 µM | – | – | – | – | – | – | – | – | – | – | – | – | – | 1.93
Danio rerio embryo [29], 24.8 µM | – | – | – | – | – | – | – | – | – | – | – | – | – | 2.06
Danio rerio embryo [29], 25 µM | – | – | – | – | – | – | – | – | – | – | – | – | – | 2.15
Danio rerio embryo [29], 32.5 µM | – | – | – | – | – | – | – | – | – | – | – | – | – | 1.08
Danio rerio embryo [29], 33 µM | – | – | – | – | – | – | – | – | – | – | – | – | – | 1.78
Danio rerio embryo [29], 40 µM | – | – | – | – | – | – | – | – | – | – | – | – | – | 0.12

Details | EC10 Bladder size Decrease [µM] | EC10 Eye-jaw distance Decrease [µM] | EC10 LMR dark [µM] | EC10 Otolith-eye distance Decrease [µM] | EC10 Yolk sac size Increase [µM] | EC20 Bladder size Decrease [µM] | EC20 Eye size Decrease [µM] | EC20 Eye-jaw distance Decrease [µM] | EC20 LMR dark [µM] | EC20 Otolith-eye distance Decrease [µM] | EC20 Yolk sac size Increase [µM] | EC50 Bladder size Decrease [µM] | EC50 Eye-jaw distance Decrease [µM] | EC50 LMR dark [µM] | EC50 Otolith-eye distance Decrease [µM] | EC50 Yolk sac size Increase [µM]
Danio rerio embryo [2] | – | – | – | – | – | – | – | – | – | – | – | – | – | 13 | – | –
Danio rerio embryo [5] | – | – | – | – | – | – | – | – | – | – | – | 8.8 | – | – | – | –
Danio rerio embryo [7] | – | – | – | – | – | – | – | – | – | – | – | – | – | – | – | 17.6
Danio rerio embryo [8] | – | – | – | – | – | – | – | – | – | – | – | – | 15.9 | – | – | –
Danio rerio embryo [9] | – | – | – | – | – | – | – | – | – | – | – | – | – | – | 21.4 | –
Danio rerio embryo [10] | – | – | 8.51 | – | – | – | – | – | – | – | – | – | – | – | – | –
Danio rerio embryo [11] | – | – | – | – | – | – | – | – | 9.94 | – | – | – | – | – | – | –
Danio rerio embryo [14] | – | – | – | – | – | – | 10.5 | – | – | – | – | – | – | – | – | –
Danio rerio embryo [19] | 7.91 | – | – | – | – | – | – | – | – | – | – | – | – | – | – | –
Danio rerio embryo [20] | – | – | – | – | – | 8.23 | – | – | – | – | – | – | – | – | – | –
Danio rerio embryo [21] | – | – | – | – | – | – | – | – | – | – | 11.4 | – | – | – | – | –
Danio rerio embryo [23] | – | – | – | – | 8.88 | – | – | – | – | – | – | – | – | – | – | –
Danio rerio embryo [25] | – | – | – | – | – | – | – | 11.8 | – | – | – | – | – | – | – | –
Danio rerio embryo [26] | – | 9.89 | – | – | – | – | – | – | – | – | – | – | – | – | – | –
Danio rerio embryo [27] | – | – | – | – | – | – | – | – | – | 16.8 | – | – | – | – | – | –
Danio rerio embryo [28] | – | – | – | 14.6 | – | – | – | – | – | – | – | – | – | – | – | –
